Species on record: Rattus norvegicus
Test: Open TG-GATES - Regimen: Daily Repeat
Format: toxicity, organism-based, Sprague-Dawley
Parameters: regimen Daily Repeat, gender Male, age 6 weeks
Details: in vivo, po, route gavage; for APTT / Bas / Eos / Fbg / Hb / Ht / Lym / MCH / MCHC / MCV / Mono / Neu / PT / Plat / RBC / Ret / WBC: tissue Blood; for KIDNEY_L / KIDNEY_R / KIDNEY_TOTAL: tissue Kidney; for LIVER: tissue Liver; for A/G / ALP / ALT / AST / BUN / CRE / Ca / Cl / DBIL / GLC / IP / K / LDH / Na / PL / RALB / TBIL / TC / TG / TP / gamma-GTP: tissue Plasma
[1] = 0 mg/kg, 72 h, dose level Control, time 3 day
[2] = 0 mg/kg, […], dose level Control, time 7 day
[3] = 0 mg/kg, […], dose level Control, time 14 day
[4] = 0 mg/kg, […], dose level Control, time 28 day
[5] = 15 mg/kg, 72 h, dose level Low, time 3 day
[6] = 15 mg/kg, […], dose level Low, time 7 day
[7] = 15 mg/kg, […], dose level Low, time 14 day
[8] = 15 mg/kg, […], dose level Low, time 28 day

## O=c1ccc2ccccc2o1 [COUMARIN]
[1]
  TERMINAL_BW: 197.7 g
  APTT: 16.2 s
  Bas: 0%
  Eos: 1.2%
  Fbg: 204.2 mg/dL
  Hb: 13.4 g/dL
  Ht: 40.7%
  Lym: 64.8%
  MCH: 21.6 pg
  MCHC: 32.8%
  MCV: 65.9 fL
  Mono: 9.8%
  Neu: 24.2%
  PT: 11.8 s
  Plat: 97.8 x10_4/uL
  RBC: 617.8 x10_4/ul
  Ret: 8%
  WBC: 95.9 x10_2/uL
  KIDNEY_L: 0.9 g
  KIDNEY_R: 0.9 g
  KIDNEY_TOTAL: 1.9 g
  LIVER: 9.7 g
  A/G: 2.1
  ALP: 849.4 IU/L
  ALT: 39.8 IU/L
  AST: 68.6 IU/L
  BUN: 15.2 mg/dL
  CRE: 0.5 mg/dL
  Ca: 10.7 mg/dL
  Cl: 104.8 meq/L
  DBIL: 0.036 mg/dL
  GLC: 204.6 mg/dL
  IP: 8 mg/dL
  K: 4.9 meq/L
  LDH: 87.4 IU/L
  Na: 138.8 meq/L
  PL: 134.6 mg/dL
  RALB: 3.8 g/dL
  TBIL: 0.3 mg/dL
  TC: 79.6 mg/dL
  TG: 58.6 mg/dL
  TP: 5.6 g/dL
  gamma-GTP: 1 IU/L
[2]
  TERMINAL_BW: 227.5 g
  APTT: 16.5 s
  Bas: 0%
  Eos: 0.6%
  Fbg: 218.4 mg/dL
  Hb: 13.8 g/dL
  Ht: 41.6%
  Lym: 83.4%
  MCH: 21.3 pg
  MCHC: 33.2%
  MCV: 64.1 fL
  Mono: 4%
  Neu: 11.8%
  PT: 12 s
  Plat: 108.5 x10_4/uL
  RBC: 649.8 x10_4/ul
  Ret: 6.1%
  WBC: 145 x10_2/uL
  KIDNEY_L: 1 g
  KIDNEY_R: 1 g
  KIDNEY_TOTAL: 2 g
  LIVER: 11.4 g
  A/G: 2.2
  ALP: 954.6 IU/L
  ALT: 35.6 IU/L
  AST: 58 IU/L
  BUN: 17.8 mg/dL
  CRE: 0.6 mg/dL
  Ca: 10.6 mg/dL
  Cl: 104.8 meq/L
  DBIL: 0.014 mg/dL
  GLC: 189.8 mg/dL
  IP: 7.5 mg/dL
  K: 4.9 meq/L
  LDH: 79.6 IU/L
  Na: 138.6 meq/L
  PL: 142.6 mg/dL
  RALB: 3.9 g/dL
  TBIL: 0.3 mg/dL
  TC: 70 mg/dL
  TG: 108.8 mg/dL
  TP: 5.7 g/dL
  gamma-GTP: 1.4 IU/L
[3]
  TERMINAL_BW: 286.1 g
  APTT: 16.7 s
  Bas: 0.2%
  Eos: 0.6%
  Fbg: 230.2 mg/dL
  Hb: 14.2 g/dL
  Ht: 42.9%
  Lym: 81%
  MCH: 20.6 pg
  MCHC: 33.2%
  MCV: 62 fL
  Mono: 7.4%
  Neu: 10.8%
  PT: 11.7 s
  Plat: 117.6 x10_4/uL
  RBC: 692.4 x10_4/ul
  Ret: 4.8%
  WBC: 114.9 x10_2/uL
  KIDNEY_L: 1.2 g
  KIDNEY_R: 1.2 g
  KIDNEY_TOTAL: 2.3 g
  LIVER: 14 g
  A/G: 2
  ALP: 840.4 IU/L
  ALT: 32.4 IU/L
  AST: 59 IU/L
  BUN: 17.2 mg/dL
  CRE: 0.6 mg/dL
  Ca: 10.8 mg/dL
  Cl: 106.2 meq/L
  DBIL: 0.08 mg/dL
  GLC: 192 mg/dL
  IP: 7.5 mg/dL
  K: 4.8 meq/L
  LDH: 84.8 IU/L
  Na: 139.4 meq/L
  PL: 165.8 mg/dL
  RALB: 4 g/dL
  TBIL: 0.3 mg/dL
  TC: 84 mg/dL
  TG: 104 mg/dL
  TP: 6 g/dL
  gamma-GTP: 1.4 IU/L
[4]
  TERMINAL_BW: 359.5 g
  APTT: 17.8 s
  Bas: 0.2%
  Eos: 1.2%
  Fbg: 225 mg/dL
  Hb: 15.1 g/dL
  Ht: 45.2%
  Lym: 79.6%
  MCH: 19.6 pg
  MCHC: 33.4%
  MCV: 58.8 fL
  Mono: 5%
  Neu: 13.8%
  PT: 12 s
  Plat: 101 x10_4/uL
  RBC: 769 x10_4/ul
  Ret: 2.8%
  WBC: 128.8 x10_2/uL
  KIDNEY_L: 1.4 g
  KIDNEY_R: 1.4 g
  KIDNEY_TOTAL: 2.7 g
  LIVER: 16.1 g
  A/G: 1.7
  ALP: 705.8 IU/L
  ALT: 31.2 IU/L
  AST: 54.2 IU/L
  BUN: 18.8 mg/dL
  CRE: 0.6 mg/dL
  Ca: 10.7 mg/dL
  Cl: 106 meq/L
  DBIL: 0.012 mg/dL
  GLC: 215 mg/dL
  IP: 6.5 mg/dL
  K: 4.5 meq/L
  LDH: 51 IU/L
  Na: 138.8 meq/L
  PL: 137.4 mg/dL
  RALB: 4 g/dL
  TBIL: 0.3 mg/dL
  TC: 63 mg/dL
  TG: 126 mg/dL
  TP: 6.4 g/dL
  gamma-GTP: 1 IU/L
[5]
  TERMINAL_BW: 198.3 g
  APTT: 15.1 s
  Bas: 0%
  Eos: 1%
  Fbg: 192.4 mg/dL
  Hb: 13.1 g/dL
  Ht: 39.5%
  Lym: 72.2%
  MCH: 21.5 pg
  MCHC: 33.2%
  MCV: 64.8 fL
  Mono: 9.8%
  Neu: 17%
  PT: 11.6 s
  Plat: 110.7 x10_4/uL
  RBC: 608.6 x10_4/ul
  Ret: 7.9%
  WBC: 108.8 x10_2/uL
  KIDNEY_L: 0.9 g
  KIDNEY_R: 0.9 g
  KIDNEY_TOTAL: 1.8 g
  LIVER: 10.1 g
  A/G: 2.1
  ALP: 921.6 IU/L
  ALT: 40.6 IU/L
  AST: 68 IU/L
  BUN: 14.8 mg/dL
  CRE: 0.5 mg/dL
  Ca: 10.8 mg/dL
  Cl: 104.6 meq/L
  DBIL: 0.02 mg/dL
  GLC: 190 mg/dL
  IP: 8.3 mg/dL
  K: 4.9 meq/L
  LDH: 78.2 IU/L
  Na: 138.8 meq/L
  PL: 150 mg/dL
  RALB: 3.7 g/dL
  TBIL: 0.3 mg/dL
  TC: 89.2 mg/dL
  TG: 68 mg/dL
  TP: 5.5 g/dL
  gamma-GTP: 1.6 IU/L
[6]
  TERMINAL_BW: 228.4 g
  APTT: 16 s
  Bas: 0%
  Eos: 1%
  Fbg: 223.8 mg/dL
  Hb: 13.9 g/dL
  Ht: 42%
  Lym: 81.6%
  MCH: 21.3 pg
  MCHC: 33%
  MCV: 64.4 fL
  Mono: 5.2%
  Neu: 12.4%
  PT: 11.5 s
  Plat: 119 x10_4/uL
  RBC: 653.2 x10_4/ul
  Ret: 6.1%
  WBC: 129.6 x10_2/uL
  KIDNEY_L: 1 g
  KIDNEY_R: 1 g
  KIDNEY_TOTAL: 2 g
  LIVER: 11.6 g
  A/G: 2.1
  ALP: 1042 IU/L
  ALT: 34.2 IU/L
  AST: 53.8 IU/L
  BUN: 16 mg/dL
  CRE: 0.5 mg/dL
  Ca: 10.9 mg/dL
  Cl: 104.8 meq/L
  DBIL: 0.022 mg/dL
  GLC: 192 mg/dL
  IP: 7.4 mg/dL
  K: 5 meq/L
  LDH: 85.4 IU/L
  Na: 138.4 meq/L
  PL: 178.6 mg/dL
  RALB: 4 g/dL
  TBIL: 0.3 mg/dL
  TC: 97.6 mg/dL
  TG: 96 mg/dL
  TP: 6 g/dL
  gamma-GTP: 2 IU/L
[7]
  TERMINAL_BW: 282.9 g
  APTT: 17.1 s
  Bas: 0%
  Eos: 0.6%
  Fbg: 225.6 mg/dL
  Hb: 13.9 g/dL
  Ht: 41.8%
  Lym: 82.6%
  MCH: 20.4 pg
  MCHC: 33.3%
  MCV: 61.2 fL
  Mono: 4.8%
  Neu: 12%
  PT: 11.4 s
  Plat: 118.1 x10_4/uL
  RBC: 683 x10_4/ul
  Ret: 4.8%
  WBC: 144.2 x10_2/uL
  KIDNEY_L: 1.1 g
  KIDNEY_R: 1.1 g
  KIDNEY_TOTAL: 2.3 g
  LIVER: 14.2 g
  A/G: 1.9
  ALP: 761.8 IU/L
  ALT: 40 IU/L
  AST: 59 IU/L
  BUN: 18.2 mg/dL
  CRE: 0.5 mg/dL
  Ca: 10.9 mg/dL
  Cl: 106 meq/L
  DBIL: 0.042 mg/dL
  GLC: 194.6 mg/dL
  IP: 6.6 mg/dL
  K: 5.1 meq/L
  LDH: 87 IU/L
  Na: 138.2 meq/L
  PL: 171.2 mg/dL
  RALB: 4 g/dL
  TBIL: 0.3 mg/dL
  TC: 84.4 mg/dL
  TG: 116.8 mg/dL
  TP: 6.1 g/dL
  gamma-GTP: 1.2 IU/L
[8]
  TERMINAL_BW: 347.7 g
  APTT: 18.3 s
  Bas: 0%
  Eos: 1.2%
  Fbg: 217.2 mg/dL
  Hb: 14.8 g/dL
  Ht: 44%
  Lym: 80%
  MCH: 19.9 pg
  MCHC: 33.5%
  MCV: 59.3 fL
  Mono: 8%
  Neu: 11%
  PT: 11.8 s
  Plat: 108.5 x10_4/uL
  RBC: 743.6 x10_4/ul
  Ret: 3%
  WBC: 134.3 x10_2/uL
  KIDNEY_L: 1.3 g
  KIDNEY_R: 1.3 g
  KIDNEY_TOTAL: 2.6 g
  LIVER: 16.4 g
  A/G: 1.7
  ALP: 681.4 IU/L
  ALT: 33.2 IU/L
  AST: 52.4 IU/L
  BUN: 19.6 mg/dL
  CRE: 0.6 mg/dL
  Ca: 10.8 mg/dL
  Cl: 107.4 meq/L
  DBIL: 0.012 mg/dL
  GLC: 187.6 mg/dL
  IP: 6.7 mg/dL
  K: 4.3 meq/L
  LDH: 46.4 IU/L
  Na: 139.4 meq/L
  PL: 145.6 mg/dL
  RALB: 4.2 g/dL
  TBIL: 0.4 mg/dL
  TC: 70.8 mg/dL
  TG: 123.8 mg/dL
  TP: 6.6 g/dL
  gamma-GTP: 1 IU/L

Source: ChEMBL document CHEMBL3885861, “Open TG-GATES”
